Data published in ChEMBL document CHEMBL5257124, “Design, synthesis and biological evaluation of novel indole-piperazine derivatives as antibacterial agents” (Bioorg Med Chem Lett, 2023).
Values after ≈ are worked out from the molar mass of the structure shown. Active and inactive are the calls of the source. The calls are words filed in the database; no cut-off is given here.

Legend:
Staphylococcus aureus [1] = assay: Antibacterial activity against methicillin resistant Staphylococcus aureus ATCC 33591 assessed as reduction in bacterial growth; assay type: functional
Escherichia coli [2] = assay: Antibacterial activity against Escherichia coli ATCC 25922 assessed as reduction in bacterial growth; assay type: functional
Bacillus cereus = assay: Antibacterial activity against Bacillus cereus assessed as reduction in bacterial growth; assay type: functional
Staphylococcus aureus [3] = assay: Bactericidal activity against Staphylococcus aureus ATCC 25923 assessed as reduction in bacterial growth; assay type: functional
Pseudomonas syringae = assay: Antibacterial activity against Pseudomonas syringae pv. actinidiae assessed as bacterial growth inhibition; assay type: functional
Escherichia coli [4] = assay: Bactericidal activity against Escherichia coli ATCC 25922 assessed as reduction in bacterial growth; assay type: functional
Ralstonia solanacearum = assay: Antibacterial activity against Ralstonia solanacearum assessed as bacterial growth inhibition; assay type: functional
Staphylococcus aureus [5] = assay: Antibacterial activity against Staphylococcus aureus ATCC 25923 assessed as reduction in bacterial growth; assay type: functional
Staphylococcus aureus [6] = assay: Bactericidal activity against methicillin resistant Staphylococcus aureus ATCC 33591 assessed as reduction in bacterial growth; assay type: functional
Staphylococcus aureus [7] = assay: Drug resistance against Staphylococcus aureus assessed as fold increase in MIC measured after 19 passaging for 19 days; assay type: functional; conditions: time 19 day
Staphylococcus aureus [8] = assay: Antibacterial activity against methicillin resistant Staphylococcus aureus assessed as reduction in bacterial growth at 2 times MIC measured at 24 hrs by time kill assay; assay type: functional; parameters: scale not given: the % may be the effect or the level left
Staphylococcus aureus [9] = assay: Antibacterial activity against methicillin resistant Staphylococcus aureus assessed as reduction in bacterial growth at 16 microg/ml measured for 2 hrs; assay type: functional; conditions: dose 16 µg/ml
BV-2 = assay: Cytotoxicity against mouse BV-2 cells assessed as inhibition of cell growth at 20 to 50 microg/ml measured for 24 hrs by MTT assay; assay type: toxicity, cell-based; conditions: bv-2, 24 h, dose 20-50 µg/ml
Staphylococcus aureus [10] = assay: Antibacterial activity against methicillin resistant Staphylococcus aureus assessed as reduction in bacterial growth at 4 times MIC measured at 24 hrs by time kill assay; assay type: functional; parameters: scale not given: the % may be the effect or the level left
Staphylococcus aureus [11] = assay: Antibacterial activity against methicillin resistant Staphylococcus aureus assessed as reduction in bacterial growth at 8 microg/ml measured for 2 hrs; assay type: functional; conditions: dose 8 µg/ml
PC-12 = assay: Cytotoxicity against rat PC12 cells assessed as inhibition of cell growth at 20 to 50 microg/ml measured for 24 hrs by MTT assay; assay type: toxicity, cell-based; conditions: pc-12, 24 h, dose 20-50 µg/ml
Staphylococcus aureus [12] = assay: Antibacterial activity against methicillin resistant Staphylococcus aureus assessed as reduction in bacterial growth at 0.5 microg/ml measured for 2 hrs; assay type: functional; conditions: dose 0.5 µg/ml
Staphylococcus aureus [13] = assay: Antibacterial activity against methicillin resistant Staphylococcus aureus assessed as reduction in bacterial growth at 8 times MIC measured at 24 hrs by time kill assay; assay type: functional, organism-based
Staphylococcus aureus [14] = assay: Antibacterial activity against methicillin resistant Staphylococcus aureus assessed as reduction in bacterial growth at 1 microg/ml measured for 2 hrs; assay type: functional; conditions: dose 1 µg/ml
Staphylococcus aureus [15] = assay: Antibacterial activity against methicillin resistant Staphylococcus aureus assessed as reduction in bacterial growth at 1 times MIC by time kill assay; assay type: functional, organism-based
Staphylococcus aureus [16] = assay: Antibacterial activity against methicillin resistant Staphylococcus aureus assessed as reduction in bacterial growth at 8 times MIC measured at 12 hrs by time kill assay; assay type: functional; parameters: scale not given: the % may be the effect or the level left

Compound | MIC (Staphylococcus aureus [1]) [µg/mL] | MIC (Escherichia coli [2]) [µg/mL] | MIC (Bacillus cereus) [µg/mL] | MBC (Staphylococcus aureus [3]) [µg/mL] | MIC (Pseudomonas syringae) [µg/mL] | MBC (Escherichia coli [4]) [µg/mL] | MIC (Ralstonia solanacearum) [µg/mL] | MIC (Staphylococcus aureus [5]) [µg/mL] | MBC (Staphylococcus aureus [6]) [µg/mL] | also measured
GENTAMICIN | > 128 | 4 | 8 | 8 | 8 | 4 | 16 | 4 | > 128 | –
Cn1cc(CN2CCN(Cc3ccc(C(F)(F)F)cc3N3CCCC3)CC2)c2cc(Cl)ccc21 | 64 (≈ 130 µM) | 64 (≈ 130 µM) | 32 (≈ 65.2 µM) | – | 64 (≈ 130 µM) | – | 64 (≈ 130 µM) | 32 (≈ 65.2 µM) | – | –
FC(F)(F)c1ccc(CN2CCN(Cc3c[nH]c4ccc(Br)cc34)CC2)c(N2CCCC2)c1 | 8 (≈ 15.3 µM) | 32 (≈ 61.4 µM) | 8 (≈ 15.3 µM) | 16 (≈ 30.7 µM) | 32 (≈ 61.4 µM) | 32 (≈ 61.4 µM) | 32 (≈ 61.4 µM) | 8 (≈ 15.3 µM) | 16 (≈ 30.7 µM) | –
Cn1cc(CN2CCN(Cc3ccc(C(F)(F)F)cc3N3CCCC3)CC2)c2cc([N+](=O)[O-])ccc21 | 128 (≈ 255 µM) | 128 (≈ 255 µM) | 128 (≈ 255 µM) | – | 128 (≈ 255 µM) | – | 128 (≈ 255 µM) | 128 (≈ 255 µM) | – | –
Cn1cc(CN2CCN(Cc3ccc(Cl)cc3Cl)CC2)c2cc([N+](=O)[O-])ccc21 | 8 (≈ 18.5 µM) | 64 (≈ 148 µM) | 8 (≈ 18.5 µM) | – | 64 (≈ 148 µM) | – | 32 (≈ 73.8 µM) | 8 (≈ 18.5 µM) | – | –
N#Cc1ccc2[nH]cc(CN3CCN(Cc4ccc(Cl)cc4Cl)CC3)c2c1 | 8 (≈ 20 µM) | 32 (≈ 80.1 µM) | 8 (≈ 20 µM) | – | 32 (≈ 80.1 µM) | – | 32 (≈ 80.1 µM) | 16 (≈ 40.1 µM) | – | –
Clc1ccc(CN2CCN(Cc3c[nH]c4ccc(Br)cc34)CC2)c(Cl)c1 | 4 (≈ 8.83 µM) | 16 (≈ 35.3 µM) | 4 (≈ 8.83 µM) | 8 (≈ 17.7 µM) | 16 (≈ 35.3 µM) | 16 (≈ 35.3 µM) | 8 (≈ 17.7 µM) | 4 (≈ 8.83 µM) | 4 (≈ 8.83 µM) | fold change (FC) (Staphylococcus aureus [7]): <4; Activity (Staphylococcus aureus [8]): 99.5%; PAE (Staphylococcus aureus [9]): 2.91 h; Activity (BV-2): Non-Toxic; Activity (Staphylococcus aureus [10]): 99.9%; PAE (Staphylococcus aureus [11]): 1.62 h; Activity (PC-12): Non-Toxic
N#Cc1ccc2[nH]cc(CN3CCN(Cc4ccc(C(F)(F)F)cc4N4CCCC4)CC3)c2c1 | 16 (≈ 34.2 µM) | 128 (≈ 274 µM) | 16 (≈ 34.2 µM) | – | 128 (≈ 274 µM) | – | 128 (≈ 274 µM) | 16 (≈ 34.2 µM) | – | –
Clc1ccc(CN2CCN(Cc3c[nH]c4ccc(Cl)cc34)CC2)c(Cl)c1 | 8 (≈ 19.6 µM) | 16 (≈ 39.1 µM) | 8 (≈ 19.6 µM) | – | 32 (≈ 78.3 µM) | – | 16 (≈ 39.1 µM) | 8 (≈ 19.6 µM) | – | –
Fc1ccc2[nH]cc(CN3CCN(Cc4ccc(Cl)cc4Cl)CC3)c2c1 | 8 (≈ 20.4 µM) | 32 (≈ 81.6 µM) | 8 (≈ 20.4 µM) | – | 32 (≈ 81.6 µM) | – | 32 (≈ 81.6 µM) | 8 (≈ 20.4 µM) | – | –
Fc1ccc2[nH]cc(CN3CCN(Cc4ccc(C(F)(F)F)cc4N4CCCC4)CC3)c2c1 | 8 (≈ 17.4 µM) | 128 (≈ 278 µM) | 8 (≈ 17.4 µM) | – | 128 (≈ 278 µM) | – | 128 (≈ 278 µM) | 16 (≈ 34.7 µM) | – | –
Cn1cc(CN2CCN(Cc3ccc(C(F)(F)F)cc3N3CCCC3)CC2)c2cc(Br)ccc21 | 8 (≈ 14.9 µM) | 32 (≈ 59.8 µM) | 16 (≈ 29.9 µM) | – | 16 (≈ 29.9 µM) | – | 16 (≈ 29.9 µM) | 16 (≈ 29.9 µM) | – | –
CO[C@H]1/C=C/O[C@@]2(C)Oc3c(C)c(O)c4c(O)c(c(/C=N/N5CCN(C)CC5)c(O)c4c3C2=O)NC(=O)/C(C)=C\C=C\[C@H](C)[C@H](O)[C@@H](C)[C@@H](O)[C@@H](C)[C@H](OC(C)=O)[C@@H]1C [RIFAMPIN] | 0.25 (≈ 0.304 µM) | 4 (≈ 4.86 µM) | – | 2 (≈ 2.43 µM) | – | 8 (≈ 9.72 µM) | – | 0.25 (≈ 0.304 µM) | 1 (≈ 1.22 µM) | PAE (Staphylococcus aureus [12]): 1.8 h; Activity (Staphylococcus aureus [13]): Active; PAE (Staphylococcus aureus [14]): 3.45 h; Activity (Staphylococcus aureus [15]): Active; Activity (Staphylococcus aureus [16]): 99.9%
